Measured values published in patent US20250296929A1, “NOVEL HEPATOSELECTIVE POLYADENYLATING POLYMERASES INHIBITORS AND THEIR METHOD OF USE” (BARUCH S. BLUMBERG INSTITUTE, priority 2021, published 2025).

Key:
[1] = test system: HBsAg secretion, HBV producing cell line HepG2.2.15; assay: Cellular assay: HBsAg inhibition in HBV producing cell line HepG2.2.15; type: cell-based; settings: Hepatitis B virus
Description: (§1) Cellular assays method 1: Cellular assays: The HBV producing cell line HepG2.2.15 was cultured in DMEM/F12 containing 10% fetal bovine serum (FBS), 100 U/ml penicillin and 100 μg/ml streptomycin (Invitrogen). Compounds of the disclosure in DMSO was added into the culture medium when cell reached 100% confluence. The final concentration of DMSO was adjusted to 0.5%. Culture medium was replaced in two days and the cell was cultured for additional two days in the presence of compound. HBsAg inhibition in culture medium was then detected with AlphaLisa assay using anti-HBsAg antibodies of 10-H05H and 60C-CR2100RB from Fitzgerald Internantional. To examine the change of nucleic acid, total RNA was extracted with Trizol reagents and resolved in glyoxal agarose gel. HBV RNA blotted onto nitrocellulose membrane was measured with P32 labeled ribo-probe. Reduction and shortening of viral RNA indicates on target effect of the tested compound. […] HepG2.2.15 cells were first seeded in 96-well plate (Corning, Cat #: CLS3595) at density of 10,000 cells/well in 100 ul DMEM/F12 medium containing 10% FBS. When cells reached 100% confluence, treatment with compounds of the disclosure was initiated, and cells were cultured in the way as described for HBsAg inhibition study. Four days post drug treatment, 100 ul of CellTiter-Glo reagents (Promega, Cat #G7570) were added into each well and the mixture was incubated at 23° C. for 12 minutes, followed by the reading of luminescent signal in Tecan's Infinite 200 PRO. Compound IC50 on HBsAg and CC50 on cell viability were calculated using Graphpad prism. The IC50 and CC50 are defined as the compound concentration (or conditioned media log dilution) at which HBsAg secretion and cytotoxicity, respectively, are reduced by 50% compared to the no drug control.
(§2) Cellular assays method 2: HepG2.2.15 cells were seeded in duplicate into white, 96-well plates at 1.5×10^4 cells/well. The cells were treated with a 3-fold serial dilution series of the compounds in DMSO. The final DMSO concentration in all wells was 1%, and DMSO was used as no drug control. The HBsAg chemiluminescence immunoassay (CLIA) kit (Autobio Diagnostics Co., Zhengzhou, China) was used to measure the levels of secreted HBV antigens semi-quantitatively. For the detection, 50 μL/well culture supernatant was used and the procedure conducted as directed by manufacturer's instructions. The cytotoxicity was measured using CellTiter-Glo (Promega, Madison, WI, USA, catalogue no. G7571). Dose-response curves were generated and the IC50 and CC50 values were calculated using Graphpad prism. The IC50 and CC50 are defined as the compound concentration (or conditioned media log dilution) at which HBsAg secrection and cytotoxicity, respectively, are reduced by 50% compared to the no drug control.

[2] = Cellular toxicity (CellTiter-Glo) in HepG2.2.15 cells; type: cell-based; settings: human
Description: as §1, §2

OATP1B1 = molecular target: T1, OATP1B1 (Homo sapiens, UniProt Q9Y6L6); assay: OATP1B1 transporter substrate uptake in OATP1B1-HEK293 cells; type: in vitro ADME; settings: for Uptake Ratio (−/+Inhibitor): OATP1B1-HEK293 cells, inhibitor Rifamycin SV; for Uptake Ratio (Transporter(−Inhibitor)/Mock(−Inhibitor)): OATP1B1-HEK293 vs Mock (normal HEK293)
T1 construct: expressed in transfected cells; host or cells: HEK293
T1 sequence (Q9Y6L6 1-691): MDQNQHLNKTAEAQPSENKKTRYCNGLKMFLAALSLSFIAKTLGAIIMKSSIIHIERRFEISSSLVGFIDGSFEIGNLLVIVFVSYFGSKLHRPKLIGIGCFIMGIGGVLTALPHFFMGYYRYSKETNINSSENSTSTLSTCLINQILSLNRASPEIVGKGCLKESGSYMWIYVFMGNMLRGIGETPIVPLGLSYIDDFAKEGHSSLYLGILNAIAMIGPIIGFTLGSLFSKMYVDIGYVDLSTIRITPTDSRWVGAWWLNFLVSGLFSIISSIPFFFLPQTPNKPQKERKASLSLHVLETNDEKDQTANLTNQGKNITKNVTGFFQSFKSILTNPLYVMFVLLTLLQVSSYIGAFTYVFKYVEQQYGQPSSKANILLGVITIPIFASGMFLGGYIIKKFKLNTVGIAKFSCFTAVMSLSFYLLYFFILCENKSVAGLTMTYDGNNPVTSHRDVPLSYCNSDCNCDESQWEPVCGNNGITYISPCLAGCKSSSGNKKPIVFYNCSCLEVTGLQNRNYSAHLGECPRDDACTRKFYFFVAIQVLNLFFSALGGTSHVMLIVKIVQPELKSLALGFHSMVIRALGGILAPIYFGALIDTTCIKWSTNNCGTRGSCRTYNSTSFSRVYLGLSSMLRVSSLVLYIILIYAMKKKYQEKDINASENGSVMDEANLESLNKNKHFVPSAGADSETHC

OATP1B3 = molecular target: T2, OATP1B3 (Homo sapiens, UniProt Q9NPD5); assay: OATP1B3 transporter substrate uptake in OATP1B3-HEK293 cells; type: in vitro ADME; settings: for Uptake Ratio (−/+Inhibitor): OATP1B3-HEK293 cells, inhibitor Rifamycin SV; for Uptake Ratio (Transporter(−Inhibitor)/Mock(−Inhibitor)): OATP1B3-HEK293 vs Mock
T2 construct: expressed in transfected cells; host or cells: HEK293
T2 sequence (Q9NPD5 1-702): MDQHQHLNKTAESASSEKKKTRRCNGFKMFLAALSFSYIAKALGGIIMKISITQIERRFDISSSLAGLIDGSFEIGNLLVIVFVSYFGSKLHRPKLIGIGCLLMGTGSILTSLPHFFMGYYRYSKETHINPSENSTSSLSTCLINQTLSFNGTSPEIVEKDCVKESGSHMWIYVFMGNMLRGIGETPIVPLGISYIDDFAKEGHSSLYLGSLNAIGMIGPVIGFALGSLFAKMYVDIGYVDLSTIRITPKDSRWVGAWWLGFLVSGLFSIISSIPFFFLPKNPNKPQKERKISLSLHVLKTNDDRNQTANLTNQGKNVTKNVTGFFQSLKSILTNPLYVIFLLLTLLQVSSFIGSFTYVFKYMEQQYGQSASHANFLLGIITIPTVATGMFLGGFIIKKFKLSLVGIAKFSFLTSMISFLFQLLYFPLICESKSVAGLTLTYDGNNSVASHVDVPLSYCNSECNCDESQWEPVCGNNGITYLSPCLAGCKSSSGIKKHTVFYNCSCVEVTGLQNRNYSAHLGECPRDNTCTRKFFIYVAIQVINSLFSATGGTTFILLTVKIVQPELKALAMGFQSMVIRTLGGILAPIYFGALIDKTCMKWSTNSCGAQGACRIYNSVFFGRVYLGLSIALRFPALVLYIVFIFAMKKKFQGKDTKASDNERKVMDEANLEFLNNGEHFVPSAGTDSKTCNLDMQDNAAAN
Description: Protocol for identification of compounds that are substrates of transporters OATP1B1 and OATP1B3. Transfected HTEK293 and vector control HTEK293 cells were cultured in 24-well poly-D-lysine or collagen-coated tissue culture plates ([…]) for 2 and 10 minutes respectively in transport buffer (HIBSSg, pH 7.4, pre-warmed to 37° C.). At a defined time point, the uptake experiments were stopped by removing dosing solution followed by two washes of ice-cold HIBSSg buffer. The cells were lysed for 2 minutes with […] containing an appropriate internal standard (when available). Lysis buffer were chilled to −20° C., and the plate was kept on ice during lysis. The cell lysate was transferred into a 96-well plate for sample analysis with LC-MS/MS analysis to determine concentration of test compound in cell lysate. The uptake of test compounds was normalized by total cell protein using the BCA Protein Assay Kit following the manufacturer's protocol. The inhibitor Rifamycin SV was used to block OATP1B1 and OATP1B3 transporter activity in order to determine uptake ratios.

HBV = settings: oral treatment, HBV infected uPA-SCID mice harboring human hepatocytes; cited from earlier work
[3] = test system: woodchuck hepatitis virus (WHV); settings: oral administration, woodchucks chronically infected with WHV; cited from earlier work
[4] = in words; cited from earlier work

Row | SMILES | EC50 [1] [nM] | CC50 [2] [nM] | further results
1 | COc1cc2c(cc1OCCCCC(=O)O)C[C@@H](C(C)C)n1cc(C(=O)O)c(=O)cc1-2 [Example 3, (S)-9-(4-carboxybutoxy)-6-isopropyl-10-methoxy-2-oxo-6,7-dihydro-2H-pyrido[2,1-a]isoquinoline-3-carboxylic acid] | 380 | > 10000 | –
2 | COc1cc2c(cc1OCCCC(=O)O)C[C@@H](C(C)C)n1cc(C(=O)O)c(=O)cc1-2 [Example 2, (S)-9-(3-carboxypropoxy)-6-isopropyl-10-methoxy-2-oxo-6,7-dihydro-2H-pyrido [2,1-a]isoquinoline-3-carboxylic acid] | 1010 | > 10000 | –
3 | COCCCOc1cc2c(cc1OC)-c1cc(=O)c(C(=O)O)cn1[C@H](C(C)C)C2 [DHQ-1] | – | – | Uptake Ratio (−/+Inhibitor) (OATP1B1; test concentration 1 μM): 0.38; Uptake Ratio (Transporter(−Inhibitor)/Mock(−Inhibitor)) (OATP1B1; test concentration 1 μM): 0.71; Uptake Ratio (−/+Inhibitor) (OATP1B3; test concentration 1 μM): 0.42; Uptake Ratio (Transporter(−Inhibitor)/Mock(−Inhibitor)) (OATP1B3; test concentration 1 μM): 0.56; Reduction of HBsAg in the circulation (HBV): 1 log; Reduction of WHV and surface protein in the blood [3]: multi-log reductions; Toxicity observed [4]: acute neurotoxicity liabilities
4 | COc1cc2c(cc1OCCCCCCCC(=O)O)C[C@@H](C(C)C)n1cc(C(=O)O)c(=O)cc1-2 [Example 7, (S)-9-((7-carboxyheptyl)oxy)-6-isopropyl-10-methoxy-2-oxo-6,7-dihydro-2H-pyrido[2,1-a]isoquinoline-3-carboxylic acid] | 7.6 | > 10000 | –
5 | C[C@]12CC[C@@H]3c4ccc(O)cc4CC[C@H]3[C@@H]1CC[C@@H]2O[C@@H]1O[C@H](C(=O)O)[C@@H](O)[C@H](O)[C@H]1O [Estradiol 17-β Glucuronide] | – | – | Uptake Ratio (−/+Inhibitor) (OATP1B1; test concentration 10 μM): 81.84; Uptake Ratio (Transporter(−Inhibitor)/Mock(−Inhibitor)) (OATP1B1; test concentration 10 μM): 48.70; Uptake Ratio (−/+Inhibitor) (OATP1B3; test concentration 10 μM): 86.15; Uptake Ratio (Transporter(−Inhibitor)/Mock(−Inhibitor)) (OATP1B3; test concentration 10 μM): 98.86
6 | COc1cc2c(cc1OCC(=O)O)C[C@@H](C(C)C)n1cc(C(=O)O)c(=O)cc1-2 [Example 1, (S)-9-(carboxymethoxy)-6-isopropyl-10-methoxy-2-oxo-6,7-dihydro-2H-pyrido [2,1-a]isoquinoline-3-carboxylic acid] | 10000 | > 10000 | –
7 | COc1cc2c(cc1OCCCCCC(=O)O)C[C@@H](C(C)C)n1cc(C(=O)O)c(=O)cc1-2 [Example 4, (S)-9-((5-carboxypentyl)oxy)-6-isopropyl-10-methoxy-2-oxo-6,7-dihydro-2H-pyrido[2,1-a]isoquinoline-3-carboxylic acid] | 87 | > 10000 | –
8 | COc1cc2c(cc1OCCCCCCCCC(=O)O)C[C@@H](C(C)C)n1cc(C(=O)O)c(=O)cc1-2 [Example 8, (S)-9-((8-carboxyoctyl)oxy)-6-isopropyl-10-methoxy-2-oxo-6,7-dihydro-2H-pyrido[2,1-a]isoquinoline-3-carboxylic acid] | 4.6 | > 10000 | –
9 | COc1cc2c(cc1OCCCOCC(=O)O)C[C@@H](C(C)C)n1cc(C(=O)O)c(=O)cc1-2 [Example 5, (S)-9-(3-(carboxymethoxy)propoxy)-6-isopropyl-10-methoxy-2-oxo-6,7-dihydro-2H-pyrido[2,1-a]isoquinoline-3-carboxylic acid] | 2780 | > 10000 | –
